Laboratory results reported in publication PMC6212778, “Site-specific amino acid substitution in dodecameric peptides determines the stability and unfolding of c-MYC quadruplex promoting apoptosis in cancer cells” (Nucleic Acids Research, 2018).

Experiments:
[1] = test system: KR12C (synthetic, derived from human LL37); assay: ITC; settings: ITC: 10 mM potassium phosphate pH 7.0, 100 mM KCl, 25 C, 20 uM peptide in cell, 500 uM G4 DNA in syringe, one-site fit. NMR: same buffer, 10% D2O, NOESY at …; for binding signal (fold lower affinity than c-MYC G4): 100 mM KCl, fold order read as BCL-2 then telomere
[2] = test system: KR12C (synthetic, derived from human LL37); assay: CD melting; settings: ITC: 10 mM potassium phosphate pH 7.0, 100 mM KCl, 25 C; 20 uM peptide in cell, 500 uM G4 DNA in syringe; one-site fit. NMR: same buffer, 10% D2O, NOESY at …
[3] = test system: BCL-2 promoter (BCL-2-GQ) in MCF-7 cells; assay: Dual-luciferase assay, BCL-2 promoter with BCL-2-GQ; type: cell-based, human; settings: MCF-7, 24 h, peptide 0–60 μM
Procedure: (§1) MCF-7 cells are sub-cultured into 24-well microtiter plates at a cell density of 1 × 10^5 cells/well. Reporter constructs (c-MYC, BCL-2, KRAS and VEGF-A) (500 ng) with and/or without the G-quadruplex scaffolds triggering the expression of Renilla luciferase are co-transfected with 50 ng of pGL3-control vectors (Promega) (used as internal control), encoding firefly luciferase into MCF-7 cells using Lipofectamine® 3000 transfection reagent (Thermo-Fisher Scientific) following manufacturer's recommendations (Supplementary information Section 1). Twenty four hours post-transfection, cells are treated with peptides (FK13, KR12A, KR12B, KR12C, KR12D and KR12E) at an increasing concentration gradient.
(§2) Dual-luciferase assays are performed to examine the intracellular selectivity of peptides for c-MYC quadruplex isomers (Pu27, Myc22 and Pu19) over other oncogenic quadruplexes (BCL-2, VEGF-A and KRAS) of different topologies. The role of peptide-quadruplex complex in oncogene promoter activation is investigated in contrast to the GQ-null promoter constructs into MCF-7 cells ([67]). After 24 h of peptide treatment, cells are washed and lysed into 100 μl 1× Passive lysis buffer (PLB) for 15 min at room temperature. Renilla and firefly Luciferase activities in 25 μl lysate are quantified by Dual-Luciferase® reporter assay system (Promega) as per manufacturer's recommendations. Renilla luciferase enzyme activity is normalized to that of the firefly luciferase activity and luminescence of the peptide-treated samples are normalized to the untreated ones, which yield the fold induction values for Renilla activities by different quadruplex structures in presence and absence of synthetic peptides. Luminescence of each sample is detected in GloMax® 20/20 Single-Tube Luminometer (Promega) in triplicates and averaged from three independent experiments.

[4] = test system: c-MYC quadruplex Pu27; assay: CD melting of free and peptide-bound Pu27; type: binding, human
Procedure: To understand the role of peptides (FK13, KR12A, KR12B, KR12C, KR12D and KR12E) in stabilizing native and truncated isomers of c-MYC G-quadruplex, we have performed temperature-driven CD melting experiments for free and peptide-bound complexes in JASCO-J815 CD spectrometer. We have gradually titrated the peptides into 10 μM of putative quadruplexes and acquired the spectra after 5 min of peptide addition to allow complex formation and equilibration. Samples are heated from 20 to 95°C having the temperature gradient and the delay time of 2.5°C/min and 150 s respectively. Since the quadruplexes unfold at higher temperatures and revert back to their initial conformations upon renaturation, we have assumed a ‘two-state transition’ model (folded and unfolded) to analyze the melting curves and estimated the melting temperatures (Tm) by fitting the data points into sigmoidal curves (Supplementary information Section 1).

[5] = test system: native c-MYC quadruplex (Pu27); assay: ITC of peptides with native c-MYC quadruplex Pu27 in potassium phosphate buffer; type: binding, human; settings: 25°C, 20 μM peptide in cell, 500 μM Pu27 in syringe, 10 mM potassium phosphate, 0.1 M KCl, pH 7.0, one-site model
Procedure: The putative wild-type and truncated G-quadruplex forming sequences (Table 2 and Supplementary Table S1), located at the upstream of c-MYC promoter are reconstituted in 10 mM Potassium Phosphate buffer (pH 7.0) having 100 mM potassium chloride (KCl). The sequences are allowed to evolve G-quadruplex structure in solution by annealing at 95°C followed by gradual cooling. (Supplementary information Section 1).
Thermodynamic attributes of the interaction profiles between peptides and putative quadruplex sequences are analysed by ITC using iTC200 Microcalorimeter at 25°C. Synthetic peptides (FK13, KR12A, KR12B, KR12C, KR12D and KR12E) are diluted to 20 μM in 10 mM Potassium phosphate buffer (10 mM K2HPO4 + 10 mM KH2PO4) containing 0.1 M KCl (pH 7.0). Syringe is filled with 500 μM quadruplex sequences present in the upstream promoter regions of c-MYC (Pu27, Pu19, and Myc22), BCL-2 (Pu30), VEGF-A (Pu22), KRAS (Pu32) oncogenes, and telomere (Tel26) dissolved into the same buffer. We also carried out the experiment for KR12C and Pu27 using MCF-7 nuclear extract as the solvent to mimic the cellular microenvironment and impart macromolecular crowding during binding events. Same concentration of oligonucleotides is injected into the identical buffer or in nuclear extract without peptides to normalize the heat of dilution of peptide-quadruplex association to that of the control before curve-fitting. Oligonucleotides are injected 20 times at an interval of 150 s into the calorimeter cell having the peptides to achieve binding saturation. The heat of reaction per injection (μcal/s) is determined by integration of the peak areas using in-built Origin 7.0 software that provides the best-fit values of enthalpy (ΔH) and entropy (ΔS) of binding, the binding stoichiometry (n), and dissociation constant (Kd) (Supplementary Tables S5(a), S5(b) and S5(c)). Data points are further simulated with ‘one-site’ binding modes (Supplementary information Section 1).

[6] = test system: VEGF-A promoter (VEGF-A-GQ) in MCF-7 cells; assay: Dual-luciferase assay, VEGF-A promoter with VEGF-A-GQ; type: cell-based, human; settings: MCF-7, 24 h, peptide 0–60 μM
Procedure: as §1, §2

[7] = test system: KRAS promoter (KRAS-GQ) in MCF-7 cells; assay: Dual-luciferase assay, KRAS promoter with KRAS-GQ; type: cell-based, human; settings: MCF-7, 24 h
Procedure: as §1, §2

[8] = test system: c-MYC promoter with Myc22 isomer in MCF-7 cells; assay: Dual-luciferase assay, c-MYC promoter under control of Myc22; type: cell-based, human; settings: MCF-7, 24 h peptide treatment
Procedure: as §1, §2

[9] = test system: c-MYC promoter with Pu19 isomer in MCF-7 cells; assay: Dual-luciferase assay, c-MYC promoter under control of Pu19; type: cell-based, human; settings: MCF-7, 24 h peptide treatment
Procedure: as §1, §2

[10] = test system: c-MYC promoter (Pu27-GQ) in MCF-7 cells; assay: Dual-luciferase assay, c-MYC promoter with Pu27-GQ; type: cell-based, human; settings: MCF-7, 24 h, peptide 0–60 μM
Procedure: as §1, §2

[11] = test system: KR12A (synthetic, derived from human LL37); assay: ITC; settings: ITC: 10 mM potassium phosphate pH 7.0, 100 mM KCl, 25 C; 20 uM peptide in cell, 500 uM G4 DNA in syringe; one-site fit. NMR: same buffer, 10% D2O, NOESY at …
[12] = test system: KR12B (synthetic, derived from human LL37); assay: ITC; settings: ITC: 10 mM potassium phosphate pH 7.0, 100 mM KCl, 25 C; 20 uM peptide in cell, 500 uM G4 DNA in syringe; one-site fit. NMR: same buffer, 10% D2O, NOESY at …
[13] = test system: KR12D (synthetic, derived from human LL37); assay: ITC; settings: ITC: 10 mM potassium phosphate pH 7.0, 100 mM KCl, 25 C; 20 uM peptide in cell, 500 uM G4 DNA in syringe; one-site fit. NMR: same buffer, 10% D2O, NOESY at …
[14] = test system: KR12E (synthetic, derived from human LL37); assay: ITC; settings: ITC: 10 mM potassium phosphate pH 7.0, 100 mM KCl, 25 C; 20 uM peptide in cell, 500 uM G4 DNA in syringe; one-site fit. NMR: same buffer, 10% D2O, NOESY at …
[15] = test system: KR12A (synthetic, derived from human LL37); assay: CD melting; settings: destabilizes; ITC: 10 mM potassium phosphate pH 7.0, 100 mM KCl, 25 C; 20 uM peptide in cell, 500 uM G4 DNA in syringe; one-site fit. NMR: same buffer, 10% D2O, NOESY at …
[16] = test system: KR12E (synthetic, derived from human LL37); assay: CD melting; settings: destabilizes; ITC: 10 mM potassium phosphate pH 7.0, 100 mM KCl, 25 C; 20 uM peptide in cell, 500 uM G4 DNA in syringe; one-site fit. NMR: same buffer, 10% D2O, NOESY at …
[17] = target: T1, FK13 (LL37-derived peptide) (Homo sapiens (synthetic, derived from …, UniProt P49913 150-162)); assay: ITC; 100 mM KCl; ITC: 10 mM potassium phosphate pH 7.0, 100 mM KCl, 25 C; 20 uM peptide in cell, 500 uM G4 DNA in syringe; one-site fit. NMR: same buffer, 10% D2O, NOESY at 15 C; settings: G4, unimolecular
T1 chain: FKRIVQRIKDFLR

Molecule: BCL-2 Pu30 quadruplex
- binding signal (fold lower affinity than c-MYC G4) [1]: 3

Molecule: GGAGGGTGGGGAGGGTGGGGAA [Myc22]
- binding signal (delta Tm, deg C) [2]: 6.91

Molecule: N – KRIVKRIKKWLL – C [KR12E, dodecameric mutant peptide derived from FK13 / LL37]
- BCL-2 promoter activity [3]: no significant effects
- decrease of the Tm of Pu27 upon peptide binding ([4]; 10 μM quadruplex, two-state model): ~30 °C
- K A [5]: 18800 M⁻¹
- Kd [5]: 53.2 µM
- ΔG (binding energy) [5]: -5.89 kcal/mol
- ΔH (binding enthalpy) [5]: -168 kcal/mol
- ΔS (entropy) [5]: −544 cal/mol/deg
- VEGF-A promoter activity [6]: no significant effects
- KRAS promoter activity ([7]; peptide 0–60 μM): no significant effects
- c-MYC promoter activation under control of Myc22 [8]: no regulatory effect
- c-MYC promoter activation under control of Pu19 [9]: no regulatory effect
- c-MYC promoter activity [10]: no significant effects

Molecule: N – KRIVKVIKKWLR – C [KR12D, dodecameric mutant peptide derived from FK13 / LL37]
- BCL-2 promoter activity [3]: no significant effects
- effect on thermal stability of Pu27 [4]: did not significantly induce thermal stability
- K A [5]: 20400 M⁻¹
- Kd [5]: 49 µM
- ΔG (binding energy) [5]: -5.774 kcal/mol
- ΔH (binding enthalpy) [5]: -136 kcal/mol
- ΔS (entropy) [5]: −437 cal/mol/deg
- VEGF-A promoter activity [6]: no significant effects
- KRAS promoter activity, fold inhibition ([7]; at higher concentration): ~1.6 fold
- c-MYC promoter activation under control of Myc22 [8]: no regulatory effect
- c-MYC promoter activation under control of Pu19 [9]: no regulatory effect
- c-MYC promoter activity [10]: no significant effects

Molecule: TGGGGAGGGTGGGGAGGGT [Pu19]
- binding signal (delta Tm, deg C) [2]: 10.9

Molecule: TGGGGAGGGTGGGGAGGGTGGGGAAGG [Pu27 c-MYC quadruplex]
- Kd [11]: 61.7 µM
- Kd [12]: 37.3 µM
- Kd [13]: 49 µM
- Kd [14]: 53.2 µM
- Kd [1]: 8.06 µM
- Kd ([1]; MCF-7 nuclear extract as solvent (crowding)): 0.901 µM
- binding signal (delta Tm, deg C) [15]: -30
- binding signal (delta Tm, deg C) [16]: -30
- binding signal (delta Tm, deg C) [2]: 9

Molecule: Tel26 telomeric quadruplex
- binding signal (fold lower affinity than c-MYC G4) [1]: 4

B1: Pu27 c-MYC quadruplex (structured_DNA)
DNA: TGGGGAGGGTGGGGAGGGTGGGGAAGG
- Kd [17]: 34.6 µM
